Data published in paper PMC3531433, “Structural Insights into Cellulolytic and Chitinolytic Enzymes Revealing Crucial Residues of Insect β-N-acetyl-D-hexosaminidase” (PLoS ONE, 2012).

Experiments:
[1] = target: T1, OfHex1 (Ostrinia furnacalis, UniProt Q06GJ0, E328A); assay: inhibition of 4MU-β-GlcNAc hydrolysis, Dixon plot; format: biochemical
T1 construct: pPIC9, secreted from Pichia pastoris GS115; HisTrap and Mono Q purified; dimer with N-terminal zincin-like and C-terminal catalytic domain (residues 207-594)
T1 sequence (Q06GJ0 23-594 E328A): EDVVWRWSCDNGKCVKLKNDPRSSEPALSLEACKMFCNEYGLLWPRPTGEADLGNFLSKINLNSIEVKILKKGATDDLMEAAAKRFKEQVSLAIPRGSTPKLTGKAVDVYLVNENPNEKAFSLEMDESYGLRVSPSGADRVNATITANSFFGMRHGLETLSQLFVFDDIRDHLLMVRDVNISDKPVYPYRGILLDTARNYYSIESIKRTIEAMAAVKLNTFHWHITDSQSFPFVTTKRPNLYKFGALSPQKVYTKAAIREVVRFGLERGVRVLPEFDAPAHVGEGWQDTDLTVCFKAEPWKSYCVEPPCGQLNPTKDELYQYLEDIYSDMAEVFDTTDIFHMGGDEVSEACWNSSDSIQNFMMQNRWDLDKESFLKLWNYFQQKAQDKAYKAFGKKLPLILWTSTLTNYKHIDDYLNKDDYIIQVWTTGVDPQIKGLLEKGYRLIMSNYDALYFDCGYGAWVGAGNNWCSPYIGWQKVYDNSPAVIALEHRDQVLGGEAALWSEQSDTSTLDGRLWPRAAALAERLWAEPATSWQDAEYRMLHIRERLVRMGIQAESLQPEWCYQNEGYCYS
Description: (§1) inhibition of 4MU-β-GlcNAc hydrolysis, Dixon plot on OfHex1

[2] = target: T2, OfHex1 (Ostrinia furnacalis, UniProt Q06GJ0, E328Q); assay: inhibition of 4MU-β-GlcNAc hydrolysis, Dixon plot; format: biochemical
T2 construct: pPIC9, secreted from Pichia pastoris GS115; HisTrap and Mono Q purified; dimer with N-terminal zincin-like and C-terminal catalytic domain (residues 207-594)
T2 sequence (Q06GJ0 23-594 E328Q): T1 sequence (Q06GJ0 23-594 E328A)
Description: as §1

CC(=O)N[C@@H]1[C@@H](O)[C@H](O[C@@H]2O[C@H](CO)[C@@H](O[C@@H]3O[C@H](CO)[C@@H](O[C@@H]4O[C@H](CO)[C@@H](O)[C@H](O)[C@H]4[N+](C)(C)C)[C@H](O)[C@H]3NC(C)=O)[C@H](O)[C@H]2NC(C)=O)[C@@H](CO)O[C@H]1O [TMG-chitotriomycin]
Ki [1]: 2710 nM
Ki [2]: 101 nM
